Patent US10081616B2, “Soluble epoxide hydrolase inhibitors and uses thereof” (X-Chem, Inc., priority 2014, dated 2018)

Molecular target: T1, sEH (Homo sapiens, UniProt P34913)
T1 construct: purchased Cayman Chemical 10011669
T1 sequence (P34913 1-555): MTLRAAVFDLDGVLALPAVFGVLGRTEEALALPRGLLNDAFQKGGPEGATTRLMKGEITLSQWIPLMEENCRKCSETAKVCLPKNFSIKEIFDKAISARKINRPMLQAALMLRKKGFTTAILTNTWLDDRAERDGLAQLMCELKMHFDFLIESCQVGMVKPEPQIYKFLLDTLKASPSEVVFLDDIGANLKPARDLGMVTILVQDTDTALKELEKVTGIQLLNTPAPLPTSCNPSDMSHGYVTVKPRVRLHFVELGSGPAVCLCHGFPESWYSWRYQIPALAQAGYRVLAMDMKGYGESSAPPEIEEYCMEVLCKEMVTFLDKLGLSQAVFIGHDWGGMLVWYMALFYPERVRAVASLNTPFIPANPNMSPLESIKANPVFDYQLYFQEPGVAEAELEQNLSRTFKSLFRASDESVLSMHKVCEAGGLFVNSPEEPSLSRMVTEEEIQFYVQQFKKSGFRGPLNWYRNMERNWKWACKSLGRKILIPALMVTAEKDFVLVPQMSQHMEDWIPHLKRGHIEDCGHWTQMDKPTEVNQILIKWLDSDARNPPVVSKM
Assay: sEH inhibition assay (Epoxy Fluor 7 substrate, fluorescence)
Assay type: biochemical
Details: enzyme 3 nM, 15 min pre-incubation at room temperature, read at 30° C. for 20 minutes, read-out: IC50 against sEH
Description: The sEH inhibition assay was conducted in costar 384 well black NBS plates (Corning). The assay buffer used was 25 mM Tris pH 7.0 and 0.1 mg/ml BSA. The enzyme was purchased from Cayman Chemical (10011669) at a stock concentration of 15.625 μM. The Epoxy Fluor 7 substrate also from Cayman Chemical (10008610) was dissolved in DMSO at a concentration of 25.68 mM. This was further diluted ten-fold in DMSO to a concentration of 2.568 mM. Competition assays were performed with 5 μL Epoxy Fluor 7 diluted from DMSO stock to a final concentration of 5 nM, 5 μL of competitor (final concentration 10 μM-0.5 nM), and 10 μL enzyme (final concentration of 3 nM) in the assay buffer for a total volume of 20 μL. The compound was pre-incubated with enzyme for 15 min at room temperature prior to addition of substrate. The plate was read kinetically at excitation 330 nm and emission 465 nm wavelengths at 30° C. for 20 minutes on the Tecan M1000. The rate was calculated for the linear portion of the curves (2.5-12.5 minutes) and data fit to a sigmoidal curve.

Structure (SMILES): CN(CCn1cccn1)C(=O)c1ccc(-c2cccc(C(=O)NC3CCCCC3)c2)nc1 [Compound 1, N-(2-(1H-pyrazol-1-yl)ethyl)-6-(3-(cyclohexylcarbamoyl)phenyl)-N-methylnicotinamide]
- IC50: 2 nM
